Results published in publication PMC11528066, “Noninvasive Monitoring of Programmed Death-Ligand 2 Expression with Positron Emission Tomography using ^68Ga-labeled Peptide Antagonist in Preclinical and Exploratory Human Studies” (Research, 2024).
Where two headings read alike, the source gives them in different places. Peptide text beside a SMILES is read from it. * marks the point of attachment. NOTA = O=C(O)CN1CCN(CC(=O)O)CCN(CC(=O)*)CC1; AEEEA = NCCOCCOCCOCC(=O)O

Legend:
[1] = Biodistribution (γ-counter); assay type: in vivo, BALB/C nude mice; conditions: male, BALB/C nude, mouse, iv, total radioactivity, mean ± SD, n = 3; for tissue uptake at 10 min / tissue to tissue ratio at 10 min: 10 min p.i.; for tissue uptake at 0.5 h / tissue to tissue ratio at 0.5 h: 30 min p.i.; for tissue uptake at 1.5 h / tissue to tissue ratio at 1.5 h: 90 min p.i.
Procedure: Micro-PET imaging was conducted using an Inveon PET scanner (Siemens, Germany). Dynamic PET examine were acquired over the first 60 min following the simultaneous injection of 7.4 to 9.25 MBq (200 to 250 μCi) of [^68Ga]Ga-HN11-1 and [^68Ga]Ga-HN11-2. After reconstructing the images and delineating the regions of interest (ROIs), time-radioactivity curves were plotted to obtain the Tumor/Muscle (T/M) ratios. %ID/g represents the percentage of the injected dose of the radiotracer that accumulates in a specific tissue per gram of tissue weight. For the biodistribution study, the xenograft models received an intravenous injection of 3.7 to 5.5 MBq (100 to 150 μCi) of [^68Ga]Ga-HN11-1. After the designated period (10, 30, 60, and 90 min), the mice were euthanized, and important tissues and organs were dissected and collected. The samples were counted using the γ-counter for determining the %ID/g, presented as mean ± standard deviation (SD).
A549 cell lines were provided by the China Center for Type Culture Collection (CCTCC) and cultured in RPMI-1640 medium supplemented with 10 % fetal bovine serum and 100 U/mL penicillin-streptomycin. The lentivirus system was implemented to introduce PD-L2 (PDCD1LG2) over-expressed cDNA into the A549 cells. The viral vectors were produced in 293T cells and co-transfected with the psAX2, pMD2G and PD-L2 plasmids. A549 cells transduced with the vectors were selectively grown in 1.6 μg/mL puromycin. Transfection efficiency was identified by WB and real-time quantitative PCR. All the cells were cultured in an incubator at 37° C with 5 % CO2 atmosphere. A549 and A549-PD-L2 cells (5 × 10^6, 200 μL)were subcutaneously implanted into the right shoulder of BALB/C nude mice (male, 4-6 weeks), respectively. When the tumors reached to 5 - 8 mm in diameter, the mice were subjected to in vivo and ex vivo studies. All the mice were purchased from the Laboratory Animal Center of Central South University.

[2] = Pharmacokinetics in blood; assay type: in vivo; conditions: healthy BALB/C mouse, i.v. 5.55 MBq, noncompartmental model, Phoenix WinNonlin 8.1
Procedure: The static PET/CT imaging in A549 and A549-PD-L2 xenograft models after injection of 5.55 to 7.4 MBq (150 to 200 μCi) of [^68Ga]Ga-HN11-1 or [^68Ga]Ga-HN11-2 were acquired at 60 min. In the [^68Ga]Ga-HN11-1 + block or [^68Ga]Ga-HN11-2 + block groups, the xenograft models underwent pretreatment via intravenous injection of HN11-1 or HN-2 (10 mg/kg) before PET/CT imaging. Then, ROIs were delineated for each group. After imaging, tumor tissues from both the A549 and A459-PD-L2 xenograft tumors were extracted, and the PD-L2 expression was tested by IHC. For the pharmacokinetics study, healthy BALB/C mouse received an intravenous injection of 5.55 MBq (150 μCi) of [^68Ga]Ga-HN11-1 and [^68Ga]Ga-HN11-2. Measure the activity of blood samples (%ID/g, mean ± SD) at the corresponding time points, and the time-activity curve was plotted. Subsequently, pharmacokinetic parameters were tested using the noncompartmental model in Phoenix WinNonlin 8.1 software (Certara, USA).

[3] = large intestine, read-out: Large intestine uptake
[4] = muscle, read-out: Muscle uptake
[5] = small intestine, read-out: Small intestine uptake
[6] = tumor and blood, read-out: Tumor/Blood ratio
[7] = tumor and brain, read-out: Tumor/Brain ratio
[8] = tumor and heart, read-out: Tumor/Heart ratio
[9] = tumor and liver, read-out: Tumor/Liver ratio
[10] = tumor and lung, read-out: Tumor/Lung ratio
[11] = tumor and muscle, read-out: Tumor/Muscle ratio

tissue uptake at 10 min ([1]; bone, read-out: Bone uptake): 0.68 ± 0.06 %ID/g
tissue uptake at 0.5 h ([1]; bone, read-out: Bone uptake): 0.6 ± 0.03 %ID/g
tissue uptake at 1 h ([1]; bone, 60 min HN11-1 Block, read-out: Bone uptake): 0.43 ± 0.07 %ID/g
tissue uptake at 1 h ([1]; bone, 60 min p.i., read-out: Bone uptake): 0.41 ± 0.08 %ID/g
tissue uptake at 1.5 h ([1]; bone, read-out: Bone uptake): 0.31 ± 0.06 %ID/g
tissue uptake at 10 min ([1]; brain, read-out: Brain uptake): 0.17 ± 0.03 %ID/g
tissue uptake at 0.5 h ([1]; brain, read-out: Brain uptake): 0.12 ± 0.03 %ID/g
tissue uptake at 1 h ([1]; brain, 60 min HN11-1 Block, read-out: Brain uptake): 0.07 ± 0.01 %ID/g
tissue uptake at 1 h ([1]; brain, 60 min p.i., read-out: Brain uptake): 0.07 ± 0.01 %ID/g
tissue uptake at 1.5 h ([1]; brain, read-out: Brain uptake): 0.03 ± 0.01 %ID/g
tissue uptake at 10 min ([1]; kidney, read-out: Kidney uptake): 55.6 ± 6.6 %ID/g
tissue uptake at 10 min [1, 3]: 1.02 ± 0.06 %ID/g
tissue uptake at 0.5 h [1, 3]: 0.48 ± 0.09 %ID/g
tissue uptake at 1 h ([1]; large intestine, 60 min HN11-1 Block, read-out: Large intestine uptake): 0.23 ± 0.05 %ID/g
tissue uptake at 1 h ([1]; large intestine, 60 min p.i., read-out: Large intestine uptake): 0.21 ± 0.05 %ID/g
tissue uptake at 1.5 h [1, 3]: 0.1 ± 0.01 %ID/g
tissue uptake at 10 min [1, 4]: 0.89 ± 0.02 %ID/g
tissue uptake at 0.5 h [1, 4]: 0.69 ± 0.07 %ID/g
tissue uptake at 1 h ([1]; muscle, 60 min HN11-1 Block, read-out: Muscle uptake): 0.56 ± 0.04 %ID/g
tissue uptake at 1 h ([1]; muscle, 60 min p.i., read-out: Muscle uptake): 0.56 ± 0.09 %ID/g
tissue uptake at 1.5 h [1, 4]: 0.15 ± 0.03 %ID/g
tissue uptake at 10 min [1, 5]: 0.86 ± 0.09 %ID/g
tissue uptake at 0.5 h [1, 5]: 0.62 ± 0.04 %ID/g
tissue uptake at 1 h ([1]; small intestine, 60 min HN11-1 Block, read-out: Small intestine uptake): 0.34 ± 0.04 %ID/g
tissue uptake at 1 h ([1]; small intestine, 60 min p.i., read-out: Small intestine uptake): 0.21 ± 0.02 %ID/g
tissue uptake at 1.5 h [1, 5]: 0.16 ± 0.05 %ID/g
tissue to tissue ratio at 10 min [1, 6]: 0.58 ± 0.15
tissue to tissue ratio at 0.5 h [1, 6]: 2.66 ± 0.47
tissue to tissue ratio at 1 h ([1]; tumor and blood, 60 min p.i., read-out: Tumor/Blood ratio): 6.41 ± 0.98
tissue to tissue ratio at 1.5 h [1, 6]: 2.58 ± 0.52
tissue to tissue ratio at 1 h ([1]; tumor and blood, with HN11-1 (block; amount not stated), 60 min HN11-1 Block, read-out: Tumor/Blood ratio): 1.94 ± 0.67
tissue to tissue ratio at 10 min [1, 7]: 10.3 ± 3.45
tissue to tissue ratio at 0.5 h [1, 7]: 30.9 ± 8.94
tissue to tissue ratio at 1 h ([1]; tumor and brain, 60 min p.i., read-out: Tumor/Brain ratio): 31.9 ± 7.97
tissue to tissue ratio at 1.5 h [1, 7]: 12.3 ± 2.45
tissue to tissue ratio at 1 h ([1]; tumor and brain, with HN11-1 (block; amount not stated), 60 min HN11-1 Block, read-out: Tumor/Brain ratio): 9.41 ± 2.19
tissue to tissue ratio at 10 min [1, 8]: 1.15 ± 0.19
tissue to tissue ratio at 0.5 h [1, 8]: 4.13 ± 0.21
tissue to tissue ratio at 1 h ([1]; tumor and heart, 60 min p.i., read-out: Tumor/Heart ratio): 12.7 ± 2.22
tissue to tissue ratio at 1.5 h [1, 8]: 3 ± 0.15
tissue to tissue ratio at 1 h ([1]; tumor and heart, with HN11-1 (block; amount not stated), 60 min HN11-1 Block, read-out: Tumor/Heart ratio): 3.68 ± 1.43
tissue to tissue ratio at 10 min [1, 9]: 0.56 ± 0.07
tissue to tissue ratio at 0.5 h [1, 9]: 2.61 ± 0.82
tissue to tissue ratio at 1 h ([1]; tumor and liver, 60 min p.i., read-out: Tumor/Liver ratio): 2.53 ± 0.75
tissue to tissue ratio at 1.5 h [1, 9]: 2.13 ± 1.27
tissue to tissue ratio at 1 h ([1]; tumor and liver, with HN11-1 (block; amount not stated), 60 min HN11-1 Block, read-out: Tumor/Liver ratio): 0.57 ± 0.27
tissue to tissue ratio at 10 min [1, 10]: 1.04 ± 0.22
tissue to tissue ratio at 0.5 h [1, 10]: 3.69 ± 0.24
tissue to tissue ratio at 1 h ([1]; tumor and lung, 60 min p.i., read-out: Tumor/Lung ratio): 3.01 ± 0.53
tissue to tissue ratio at 1.5 h [1, 10]: 1.05 ± 0.24
tissue to tissue ratio at 1 h ([1]; tumor and lung, with HN11-1 (block; amount not stated), 60 min HN11-1 Block, read-out: Tumor/Lung ratio): 0.69 ± 0.23
tissue to tissue ratio at 10 min [1, 11]: 1.82 ± 0.32
tissue to tissue ratio at 0.5 h [1, 11]: 5.11 ± 0.25
tissue to tissue ratio at 1 h ([1]; tumor and muscle, 60 min p.i., read-out: Tumor/Muscle ratio): 4.11 ± 1.25
tissue to tissue ratio at 1.5 h [1, 11]: 2.66 ± 0.43
tissue to tissue ratio at 1 h ([1]; tumor and muscle, with HN11-1 (block; amount not stated), 60 min HN11-1 Block, read-out: Tumor/Muscle ratio): 1.11 ± 0.27
tissue uptake at 10 min ([1]; tumor, read-out: Tumor uptake): 1.61 ± 0.28 %ID/g
tissue uptake at 0.5 h ([1]; tumor, read-out: Tumor uptake): 3.52 ± 0.35 %ID/g
tissue uptake at 1 h ([1]; tumor, 60 min HN11-1 Block, read-out: Tumor uptake): 0.63 ± 0.18 %ID/g
tissue uptake at 1 h ([1]; tumor, 60 min p.i., read-out: Tumor uptake): 2.2 ± 0.3 %ID/g
tissue uptake at 1.5 h ([1]; tumor, read-out: Tumor uptake): 0.39 %ID/g
half-life in blood [2]: 13.37 min
SMILES: CC[C@H](C)[C@H](NC(=O)[C@H](CCCNC(=N)N)NC(=O)CNC(=O)[C@H](CCC(=O)O)NC(=O)[C@H](CC(N)=O)NC(=O)[C@H](Cc1ccc(O)cc1)NC(=O)[C@H](CCCNC(=N)N)NC(=O)[C@H](Cc1ccc(O)cc1)NC(=O)[C@H](Cc1c[nH]cn1)NC(=O)COCCOCCOCCNC(=O)CN1CCN(CC(=O)O)CCN(CC(=O)O)CC1)C(=O)N[C@@H](CCCNC(=N)N)C(=O)N[C@@H](CC(N)=O)C(=O)O [[^68Ga]Ga-HN11-1, metal not drawn] ({NOTA-AEEEA}-HYRYNEGRIRN-OH)
